Measured values as given in patent US20190192458A1, “THERAPEUTIC/PROPHYLACTIC AGENT FOR GRAFT-VERSUS-HOST DISEASE, FIBROCYTE INVASION INHIBITOR, AND INHIBITOR AGAINST TEAR REDUCTION AND REDUCTION IN GOBLET CELLS” (KEIO UNIVERSITY, priority 2016, published 2019).

Columns and labels:
[1] = test system: endoplasmic reticulum stress markers and related inflammation markers in cGVHD target organs; assay: Immunoblot analysis of endoplasmic reticulum stress markers and related inflammation markers in cGVHD target organs; assay type: in vivo, mouse; details: n=4
Description: (§1) Bone marrow transplantation was performed as described in the above section “Bone marrow transplantation,” and the resulting allogeneic bone marrow transplantation recipient mice were divided into two groups. One group was treated with intraperitoneal injection of PBA (10 mg/kg) (Aldrich) while the other was treated with intraperitoneal injection of a solvent vehicle⋅phosphate buffered saline (PBS) (pH 7.4). The allogeneic bone marrow transplantation recipients received once-daily administration of PBA or the solvent vehicle from Day 10 to Day 27 after bone marrow transplantation. They were sacrificed on Day 28 after bone marrow transplantation.
(§2) cGVHD-affected organs (exorbital lacrimal gland, proximal portion of the small intestine, dorsal skin, liver, salivary gland, lung, large intestine, and eyes) were analyzed herein.
Tissues of interest were each placed into an Eppendorf tube, and a pre-cooled RIPA buffer solution was then added to the tube. Subsequently, the tissues were each homogenized with an electric homogenizer. Samples were each allowed to stand on ice for 1 hour, and then centrifuged at 15000 rpm for 5 minutes at 4° C. Then, the supernatants were each collected in a fresh tube on ice, and used as a cell lysate. The cell lysates each received the same amount of a 5×Laemmli buffer solution, and each was heated at 100° C. for 5 minutes to denature proteins.
An aliquot of each sample having the same amount of proteins was loaded into a well of an SDS-PAGE gel, and then […]. Proteins were transferred from the gel to a membrane at 15 V for 20 minutes. The membrane was blocked at room temperature for 1 hour with 5% skim milk or 5% BSA (bovine serum albumin) in 1×TBST (a mixture of Tris-buffered saline and Tween 20). Subsequently, the membrane was incubated with a primary antibody at 4° C. overnight. The above primary antibody was diluted 1000 times with 5% skim milk or 5% BSA in 1×TBST. After incubation with the primary antibody, the membrane was washed with 1×TBST (3×10 minutes), and subjected to a secondary antibody at room temperature for 1 hour, and then washed with 1×TBST (3×10 minutes) and 1×TBS (2×10 minutes).
Proteins of interest were visualized by either one of the following two methods. (1) A target protein was colorimetrically detected using a BCIP/NBT substrate (Promega). (2) A signal was developed with an enhanced chemiluminescence (ECL) detection reagent (GE Healthcare), and a target protein was then visualized with an LAS4000 mini chemiluminescence imaging system (FUJIFILM Corporation/GE Healthcare).
The intensity of the resulting protein band was analyzed using image processing software ImageJ. Primary antibodies used in the experiments were GRP78 (Abcam), phospho-PERK (Thr980; Cell Signaling Technology Inc.), PERK (C33E10; Cell Signaling Technology Inc.), phosphor-IRE1α (Thermo Fisher Sceientific), IRE1α (14C10; Cell Signaling Technology Inc.), phosphor-eIF2α (119A11; Cell Signaling Technology Inc.), eIF2α (Cell Signaling Technology Inc.), CHOP (9C8; Thermo Fisher Scientific), TXNIP (D5F3E, Cell Signaling Technology Inc.), NF-κB (Abcam), HSP47 (SPA-470; Stress-Gen Biotechnologies Corp.), CTGF (Abcam), and β-actin (AC-15; Abcam).
With regard to the secondary antibody, (1) either AP-conjugated anti-mouse IgG antibody (Promega) or AP-conjugated anti-rabbit IgG antibody (Promega) was used when protein bands were chromogenically visualized; (2) HRP-conjugated anti-mouse antibody (Thermo Fisher Scientific) or HRP-conjugated anti-rabbit antibody (Thermo Fisher Scientific) was used when target proteins were detected by ECL.

cGVHD target organs = assay: Histological observation of cGVHD target organs (HE, Mallory, CD45 immunostaining, electron microscopy, PAS); assay type: in vivo, mouse
Description: as §1, §2
The exorbital lacrimal gland, the proximal part of the small intestine, dorsal skin, the liver, the salivary gland, the lung, the large intestine, and the eyes were collected from transplant recipients at 3 or 4 weeks after bone marrow transplantation. Subsequently, these samples were fixed with 10% neutral buffered formalin, and then each embedded in paraffin. The resulting paraffin blocks were each cut into 7-μm thick sections, and then stained with • (1) hematoxylin and eosin; • (2) Malory trichrome staining (Hopwood J, Fixation and fixtative. In: Bancroft J D, Stevens A, eds., Theory and Practice of Histological Techniques, 4th ed, Edinburgh: Churchill-Livingstone, 1996:23-46; Anderson G, Gordon K, Tissue processing, microtomy and paraffin sections. In: Bancroft J D, Stevens A, eds. T. Theory and Practice of Histological Techniques, 4th ed, Edinburgh: Churchill-Livingstone, 1996:47-68); and • (3) antibody.
For immunohistochemical assay, paraffin was first removed, and antigens were then collected by either one of the following two antigen collecting methods. • (A) For staining sections with CD45 antibody (30-F11, BD Pharmingen), the sections were immersed in an antigen retrieval solution (Target Retrieval Solution; Dako), and then boiled for 10 minutes in a microwave oven. • (B) For multistaining with CD68 (FA-11, Abd Serotec) and CHOP (F-168, Santa Cruz Biotechnology, Inc.), sections were washed with an antigen retrieval solution (HistoVT One; Nacalai Tesque, Inc.), and then heated in a water bath at 90° C. for 40 minutes. Next, the sections were blocked with 10% normal goat blood serum, and antigens in the tissue sections were then allowed to react with the primary antibodies at 4° C. overnight. Subsequently, the sections were treated with fluorophore-labelled secondary antibodies at room temperature (for example, 1 to 30° C.) for 45 minutes, and then mounted with an anti-fading mounting medium (Fluorescent Mounting Medium; Dako).
Fluorescence images were captured under an LSM confocal microscope (Carl Zeiss). For counting CD45^+ cells, 5 randomly selected regions per section were photographed at a magnification of ×200, and the number of CD45^+ cells in each image was then determined. As secondary antibodies, used were goat anti-mouse IgG (H+L) secondary antibody conjugated with Alexa Fluor 488 (Molecular Probes) and goat anti-rat IgG (H+L) secondary antibody conjugated with Alexa Fluor 568 (Molecular Probes). For isotype controls, rat IgG2b, κ (eB149/10H5, eBioscience, Inc.), rat IgG2a (54447, R&D Systems, Inc.), and rabbit IgG (Cell Signaling Technology, Inc.) were used for CD45, CD68, and CHOP, respectively.
Transmission electron microscopy was performed in accordance with a standard protocol. Tissues were collected from a mouse lacrimal gland and small intestine, and immediately fixed with 2.5% glutaraldehyde in 0.1 M phosphate buffer (pH 7.4) at 4° C. for 4 hours, and then washed 3 times with 0.1 M phosphate buffer. Subsequently, the samples were fixed again with 2% osmium tetroxide, and dehydrated with a gradient series of ethanol and 100% propylene oxide, and then embedded in epoxy resin. […]

[2] = PBA-treated vs vehicle-treated organs
[3] = organs of PBA-treated (10 mg/kg i.p.) vs vehicle-treated cGVHD mice
[4] = PBA-treated vs vehicle-treated eye, FIG. 4-1A

O=C(O)CCCc1ccccc1 [PBA, 4-phenyl-n-butyric acid]
proinflammatory molecule NF-κB in organs [1, 2]: inhibited | proinflammatory molecule TXNIP in organs [1, 2]: inhibited | protein level of CHOP in organs [1, 3]: lower protein levels | protein level of GRP78 in organs [1, 3]: lower protein levels | protein level of p-IRE1α in organs [1, 3]: lower protein levels | protein level of p-PERK in organs [1, 3]: lower protein levels | protein level of p-eIF2α in organs [1, 3]: lower protein levels | electron microscopy: hypertrophied endoplasmic reticula, cell fragments, damaged mitochondria, destroyed small villi, damaged adjacent tissues (cGVHD target organs; PBA-treated lacrimal gland and small intestine vs vehicle-treated, FIG. 4-2D): not observed | goblet cells in conjunctiva epithelium (PAS staining) (cGVHD target organs; PBA-treated vs vehicle-injected eye, n=5, P<0.001, FIG. 4-2F, 4-2G): more goblet cells | goblet cells in small intestine (PAS staining) (cGVHD target organs; PBA-treated vs vehicle-injected small intestine, n=3, P<0.001, FIG. 4-2F, 4-2G): more goblet cells | conjunctiva epithelium thinning and damage (HE staining) (cGVHD target organs; [4]): thinning and damage were observed in the vehicle-treated conjunctiva epithelium in contrast with the PBA-treated conjunctiva epithelium | meibomian gland (HE staining) (cGVHD target organs; [4]): the meibomian gland of the vehicle-treated eye was decreased and contracted as compared with the PBA-treated meibomian gland | infiltration of inflammatory cells (HE staining) (cGVHD target organs; PBA-treated vs vehicle-treated organs, FIG. 4-1A): inhibited | cGVHD-induced systemic fibrosis (Mallory staining) (cGVHD target organs; PBA-treated vs vehicle-treated organs, FIG. 4-1C): substantially inhibited | numbers of inflammatory cells (CD45+ cells) (cGVHD target organs; PBA-treated vs vehicle-treated organs, immunostaining and counting, n=3, FIG. 4-2E): considerably smaller | skin thickness, fat tissues, density of collagen bundles (HE staining) (cGVHD target organs; PBA-treated vs vehicle-treated skin, FIG. 4-1A): the vehicle-treated skin became thickened, lost fat tissues, and increased the density of collagen bundles in contrast with the PBA-treated skin | intestinal villi of small and large intestines (HE staining) (cGVHD target organs; PBA-treated vs vehicle-treated small and large intestines, FIG. 4-1A): not impaired | structures of the intestinal and conjunctival mucous membranes (PAS staining) (cGVHD target organs; after systemic injection of PBA): remained intact
